According to patent publication US20070099867A1, “Pharmaceutical agent containing hyaluronan as an active ingredient” (GLYCOSCIENCE LABORATORIES, INC., priority 2005, published 2007):

Columns and labels:
[1] = tested on: experimental autoimmune encephalomyelitis (EAE) multiple sclerosis model animals; experiment: Experimental autoimmune encephalomyelitis (EAE) multiple sclerosis model, EAE neural symptom evaluation; type: in vivo, Lewis rats; settings: for EAE clinical score at the EAE climax: Day 13 after antigen inoculation, saline 2.2±0.41; for diseased period: saline 6.5±0.55 days
[2] = tested on: K562 (human erythroleukemia cell); experiment: Cell viability by Rhodamine 123 staining after heat treatment; type: cell-based; settings: K562, 20 minutes at 43° C. then 60 minutes at 37° C., HA4 100 ng/ml
Protocol: In this example, effect of the inventive pharmaceutical agent on cell viability was measured using Rhodamine 123. […] Accordingly, the degree of the staining with Rhodamine 123 serves as an index of the mitochondrial activity, thus the index of the cellular activity (see, non-patent reference 2).
In this example, a K562 (referred to as human erythroleukemia cell or human erythroblastoid leukemia cell) was used. The K562 was purchased from RIKEN, Japan.
In this example relating to preparation of test substance, HA4 was prepared at 100 ng/ml. Specifically, HA4 was prepared by the method of Tawada et al. (Tawada A, Masa T, Oonuki Y, Watanabe A, Matsuzaki Y, Asari A. Large-scale preparation, purification and characterization of hyaluronan oligosaccharides from 4-mers to 52-mers. Glycobiology, 2002; 12(7): 421-6) and the concentration was adjusted using a physiological saline.
First, the K562 was incubated under the condition described below. The culture medium for the K562 was an RPMI-1640 medium. In this example, the K562 was incubated in Groups 1 to 3 shown below. Each group was cultured under the condition described below. […]
The K562 after washing was inoculated at 1×10^4 cells/ml in a 96-well plate and a photograph was taken using a fluorescent microscope (Nikon). The image was sent to an Adobe Photoshop (Adobe Systems) where the fluorescent intensity of a cell was measured.

[3] = tested on: K562; experiment: DNA chip gene expression analysis of cell viability genes (Example 3); type: cell-based, human; settings: K562, 42° C. 20 minutes then 37° C. 30 minutes, HA4 10 ng/ml
Protocol: In this example, the cell viability enhancement of a pharmaceutical agent according to the invention was assessed using a DNA chip capable of monitoring a gene expression promotion/inhibition.
First, the K562 was incubated in Groups 1 and 2 in the […] described above. The both groups were incubated at 42° C. for 20 minutes followed by 37° C. for 30 minutes. The medium of Group 2 was supplemented with HA4 (10 ng/ml).
(§1) After the incubation, the medium was removed by centrifugation at 1000 rpm. The obtained cells were stored in a deep freezer at −60° C. From the cells thus stored, RNA was extracted according to a standard method. The extracted RNA was subjected to the DNA chip to analyze gene expressions. The DNA chip gene expression analysis was subtracted to DNA CHIP Research Inc. Specifically, the trade name: AceGene Human Oligo Chip 30K 1 Chip Version manufactured by DNA CHIP Research Inc. was employed.

[4] = tested on: K562; experiment: DNA chip expression analysis of cytokine-associated and chemokine-associated genes (Example 4); type: cell-based, human; settings: K562, 42° C. 20 minutes then 37° C. 30 minutes, HA4 10 ng/ml
Protocol: In this example, the cytokine-associated gene and chemokine-associated gene expression inhibition of a pharmaceutical agent according to the invention was assessed using a DNA chip capable of monitoring a gene expression promotion/inhibition.
Experimental method: First, the K562 was incubated in Groups 1 and 2 in the RPMI medium described above. The both groups were incubated at 42° C. for 20 minutes followed by 37° C. for 30 minutes. The medium of Group 2 was supplemented with HA4 (10 ng/ml).
as §1, with “analyze the” for “analyze”, “expression.” for “expressions.”

[5] = tested on: rat spinal injury model; experiment: Rat spinal injury model, immunostaining of spinal tissue with anti-Hsp72 and anti-synaptophysin antibody; type: in vivo, Wistar rat; settings: Group 3: continuous intrathecal HA4 6 μg/day, 7 days; compared with Sham-operation (Group 1) and saline (Group 2)
Protocol: In this example, a rat spinal injury model was treated continuously with a physiological saline (saline group) or a physiological saline containing HA4 (HA4 group) followed by sampling the spinal tissue, which was then immunostained with an anti-Hsp72 antibody and/or an anti-synaptophysin antibody. Also in this example, a rat which had been subjected to a Sham-operation was handled as an intact control (Sham-operation group).
The rat spinal injury model was prepared by subjecting a Wistar rat (11-week old when receiving, 12-week old when using) to the procedure described below. First, a cervical to lumbar region of a test rat was clipped using an electric clipper under an anesthesia with pentobarbital and then the clipped region was cleaned with a 70% alcohol and ISOGIN. Then, the dorsal skin was excised to expose the 5th to 10th thoracic vertebrae and then the 6th thoracic vertebra was subjected to a semi-laminectomy. Then a dura was incised slightly and then under an anesthesia with xylocaine, the tip (fabricated to be 0.3 mm) of a microforceps was introduced over the width of the spinal posterior funiculus (about 1.5 mm) until the tip of the microforceps was brought into contact with the abdominal side vertebral body, and the microforceps were moved for 10 seconds to effect a debridement of the spinal cord (hereinafter referred to as a primary injury site). […]

[6] = tested on: U937 cell (human monocyte line); experiment: Cytokine production by LPS-stimulated U937 cells, Human Cytokine Antibody array; type: cell-based; settings: U937, LPS 100 ng/ml, HA4 100 ng/ml, 24 hours
Protocol: (§2) An U937 cell was disseminated in a 2 ml aliquot in a 6-well microplate at 5×10^5 cell/ml, supplemented with an LPS at a final concentration of 100 or 1000 ng/ml, and then incubated for 24 hours with 5% CO2 at 37° C. in the presence or absence of HA4 (100 ng/ml). The culture supernatant was centrifuged at 3000 rpm for 5 minutes to obtain a test substance. A 1 ml aliquot of the recovered supernatant was subjected to Human Cytokine Antibody array (Raybio) using an ELISA (ENDOGEN) to detect the production of various cytokines.
(§3) More specifically, the following procedure was employed to measure the production of the cytokines by the cytokine array and the ELISA.
A 2 ml aliquot of a blocking buffer was added to a membrane blotted with an antibody, which was then shaken for 30 minutes. The blocking buffer was removed, and a 1 ml aliquot of the culture supernatant was added and shaken at room temperature for 2 hours, washed 5 times, and then admixed with a primary antibody solution. After agitating at room temperature for 1.5 hours followed by washing 5 times, a secondary antibody solution was added and agitated overnight at 4° C. After washing 5 times, a chemiluminescence was allowed to develop and photographed by a Polaroid. The photograph was scanned to obtain its digital data which were subjected to an Image J to measure the luminescent intensity. The ratio based on the luminescent intensity of an internal standard placed in 6 positions in the membrane was calculated. In addition, a relative level (%) based on the expression level in a non-treatment group (NT) being 100 was calculated.

[7] = tested on: U937 cell (human monocyte line); experiment: IL-6 production by LPS-stimulated U937 cells, ELISA; type: cell-based; settings: U937, LPS 100 ng/ml, HA4 100 ng/ml, 24 hours
Protocol: as §2, §3
To a microplate, 50 μl of a biotinylated antibody solution and 50 μl of the culture supernatant were added, and allowed to stand at room temperature for 2 hours. After washing with a washing buffer three times, 100 μl of a streptoavidin-HRP solution was added, allowed to stand at room temperature for 30 minutes, and washed with the washing buffer three times. A TMB was added, allowed to stand for at room temperature 30 minutes, and then a quencher was added to stop the reaction and the absorbance at 450 nm was measured (reference: 562 nm). The IL-6 concentration (pg/ml) was calculated based on the standard solutions measured in parallel.

[8] = tested on: cerebrospinal tissue of multiple sclerosis model (EAE); experiment: DNA array analysis of cerebrospinal tissue of the EAE model; type: in vivo, Lewis rats; settings: EAE rats
[9] = intraspinal single administration after onset of disease, 60 μg
[10] = intrathecal continuous 6 μg/day from antigen inoculation, Day 14, pooled cerebrospinal tissue

Compound: CC(=O)N[C@H]1[C@H](O[C@H]2[C@H](O)[C@@H](O)[C@H](O[C@H]3[C@H](O)[C@@H](CO)OC(O)[C@@H]3NC(C)=O)O[C@@H]2C(=O)O)O[C@H](CO)[C@@H](O)[C@@H]1O[C@@H]1O[C@H](C(=O)O)[C@@H](O)[C@H](O)[C@H]1O (some centres unmarked) [HA4, tetrasaccharide hyaluronan]
- EAE clinical score at the EAE climax ([1]; intraspinal continuous administration after onset of disease, 6 μg/day, 11 days (therapeutic)): 1.5±1.0
- EAE clinical score at the EAE climax ([1]; intraspinal continuous administration immediately after inoculation, 6 μg/day, 22 days (prophylactic), mean ± SD): 0.2±0.41
- EAE clinical score at the EAE climax [1, 9]: 1.8±0.5
- diseased period ([1]; intraspinal continuous administration after onset of disease, 6 μg/day, 11 days): 4.3 ± 1.5 days
- cases developing the disease ([1]; intraspinal continuous administration immediately after inoculation, 6 μg/day, 22 days): ⅙
- diseased period [1, 9]: 5.0 ± 1.5 days
- Rhodamine 123 staining performance (fluorescent intensity, mitochondrial activity) [2]: inhibited such a reduction
- HAA+/− ratio, Caspase 2 gene expression ([3]; apoptosis-related): 0.27
- HAA+/− ratio, Granzyme H gene expression ([3]; apoptosis-related): 0.38
- HAA+/− ratio, STK17b (DARK2) gene expression ([3]; apoptosis-related): 0.09
- HAA+/− ratio, pawr (Par-4) gene expression ([3]; apoptosis-related): 0.45
- HAA+/− ratio, dnaj (hsp40) homolog gene expression ([3]; heat shock protein-related): 2.62
- HAA+/− ratio, DNAJ2 gene expression ([3]; transcription control-related): 0.34
- HAA+/− ratio, TAF9L gene expression ([3]; transcription control-related): 0.43
- HA4(+)/HA4(−) ratio, CCL28 gene expression [4]: 0.32
- HA4(+)/HA4(−) ratio, IFN-γ gene expression [4]: 0.11
- HA4(+)/HA4(−) ratio, IFN-ω1 gene expression [4]: 0.5
- HA4(+)/HA4(−) ratio, IL-1β gene expression [4]: 0.36
- HA4(+)/HA4(−) ratio, IL-5 gene expression [4]: 0.28
- HA4(+)/HA4(−) ratio, IL-17b gene expression [4]: 0.31
- HA4(+)/HA4(−) ratio, IL-18RAP gene expression [4]: 0.32
- HA4(+)/HA4(−) ratio, Mig(CXCL9) gene expression [4]: 0.11
- Hsp72 immunostaining at primary and secondary injury sites [5]: a further intense staining
- synaptophysin immunostaining at primary and secondary injury sites [5]: an expression close to that observed in Group 1
- production of IL-1α (cytokine array) [6]: reduction
- production of IL-1β (cytokine array) [6]: reduction
- production of IL-6 (cytokine array) [6]: reduction
- production of TGF-β (cytokine array) [6]: reduction
- production of TNF-α (cytokine array) [6]: reduction
- production of TNF-β (cytokine array) [6]: reduction
- production of IL-6 (ELISA) [7]: reduction
- IL-6 mRNA expression in cerebrospinal tissue ([8]; HA4 administered intrathecally after antigen inoculation, DNA array): increased
- Expression level ratio (HA/physiological saline), Decoy TRAIL receptor without death domain [8, 10]: 2.0
- Expression level ratio (HA/physiological saline), Fibroblast growth factor receptor substrate 2 [8, 10]: 2.3
- Expression level ratio (HA/physiological saline), Transthyretin [8, 10]: 0.38
